# According to the supplement of paper PMC10307832:
# Legend:
# Experiment in all cases: relative viability (nuclei count vs DMSO), 5 days (fraction); higher = more cells survive
# Seliciclib + Alpelisib = compound: CC[C@H](CO)Nc1nc(NCc2ccccc2)c2ncn(C(C)C)c2n1 [Seliciclib] + Cc1nc(NC(=O)N2CCC[C@H]2C(N)=O)sc1-c1ccnc(C(C)(C)C(F)(F)F)c1 [Alpelisib] (partner 2 µM)
# Method in brief: (§1)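 Cells from lung cancer lines were seeded into 1536-well plates and, one day later, dosed by pin tool. Treatments were either a single drug or a fixed dose of an anchor drug with five library-drug doses (not always all listed) in √10 steps. After 5 days, nuclei were stained in a one-step fixation (final 0.05% Triton X-100, 1% formaldehyde, 1 ug/ml Hoechst) and counted on 4× images, and relative viability is the treated-to-vehicle nuclei ratio, as the median of duplicate plates.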
# Seliciclib + Palbociclib = compound: CC[C@H](CO)Nc1nc(NCc2ccccc2)c2ncn(C(C)C)c2n1 [Seliciclib] + CC(=O)c1c(C)c2cnc(Nc3ccc(N4CCNCC4)cn3)nc2n(C2CCCC2)c1=O [Palbociclib] (partner 0.5 µM)
# Method in brief: as §1
# Seliciclib + Bortezomib = compound: CC[C@H](CO)Nc1nc(NCc2ccccc2)c2ncn(C(C)C)c2n1 [Seliciclib] + CC(C)C[C@H](NC(=O)[C@H](Cc1ccccc1)NC(=O)c1cnccn1)B(O)O [Bortezomib] (partner 0.002 µM)
# Method in brief: as §1
# Seliciclib + Dasatinib = compound: CC[C@H](CO)Nc1nc(NCc2ccccc2)c2ncn(C(C)C)c2n1 [Seliciclib] + Cc1nc(Nc2ncc(C(=O)Nc3c(C)cccc3Cl)s2)cc(N2CCN(CCO)CC2)n1 [Dasatinib] (partner 0.075 µM)
# Method in brief: as §1
Cell Line,relative viability (Seliciclib + Alpelisib; first compound 0.08 µM),relative viability (Seliciclib + Alpelisib; first compound 0.253 µM),relative viability (Seliciclib + Alpelisib; first compound 0.8 µM),relative viability (Seliciclib + Alpelisib; first compound 2.53 µM),relative viability (Seliciclib + Alpelisib; first compound 8 µM),relative viability (Seliciclib + Palbociclib; first compound 0.08 µM),relative viability (Seliciclib + Palbociclib; first compound 0.253 µM),relative viability (Seliciclib + Palbociclib; first compound 0.8 µM),relative viability (Seliciclib + Palbociclib; first compound 2.53 µM),relative viability (Seliciclib + Palbociclib; first compound 8 µM),relative viability (Seliciclib + Bortezomib; first compound 0.08 µM),relative viability (Seliciclib + Bortezomib; first compound 0.253 µM),relative viability (Seliciclib + Bortezomib; first compound 0.8 µM),relative viability (Seliciclib + Bortezomib; first compound 2.53 µM),relative viability (Seliciclib + Bortezomib; first compound 8 µM),relative viability (Seliciclib + Dasatinib; first compound 0.08 µM),relative viability (Seliciclib + Dasatinib; first compound 0.253 µM),relative viability (Seliciclib + Dasatinib; first compound 0.8 µM),relative viability (Seliciclib + Dasatinib; first compound 2.53 µM),relative viability (Seliciclib + Dasatinib; first compound 8 µM)
NCI-H441,0.631,0.584,0.776,0.754,0.51,0.199,0.217,0.203,0.144,0.14,0.662,0.429,0.314,0.406,0.531,0.732,0.848,0.536,0.339,0.601
NCI-H23,0.612,0.447,0.603,0.504,0.562,0.548,0.49,0.416,0.335,0.258,0.84,0.776,1.1,0.496,0.895,0.855,0.785,0.756,0.296,0.643
HARA,0.892,0.911,0.747,0.855,0.776,0.284,0.282,0.229,0.259,0.163,1.09,1.27,1.04,1.25,1.03,0.288,0.274,0.319,0.228,0.245
NCI-H1792,0.765,0.725,0.719,0.682,0.633,0.655,0.717,0.613,,0.566,1.03,0.96,0.898,0.904,0.884,0.754,0.788,0.766,,0.743
NCI-H1703,0.322,0.421,0.288,0.354,0.229,,,,,,0.416,0.297,0.371,0.353,0.249,,,,,
NCI-H358,0.789,0.887,0.913,0.741,0.444,0.13,0.167,0.133,0.105,0.107,,,,,,0.196,0.153,0.148,0.129,0.137
CAL-12T,1.11,,0.86,1,0.946,0.524,0.469,0.354,0.226,0.207,0.936,1.36,0.888,0.785,0.567,0.501,0.738,0.362,0.23,0.284
NCI-H727,0.571,0.696,0.49,0.526,0.538,0.619,0.601,0.555,0.577,0.575,0.759,0.774,0.578,0.585,0.716,0.481,0.504,0.342,0.307,0.336
NCI-H2085,0.971,1.19,0.984,0.926,0.809,0.472,0.44,0.419,0.41,0.314,0.759,1.09,1.1,1.03,0.841,0.219,0.274,0.256,0.294,0.251
NCI-H1395,1.08,0.843,1.04,1.07,1.02,0.596,0.49,0.604,,0.523,,,,,,0.464,0.406,0.428,0.361,0.368
SW 900,,,,,,0.583,0.489,0.513,0.411,0.306,,,,,,0.541,0.593,0.661,0.397,0.559
NCI-H460,0.426,0.485,0.381,0.538,0.385,0.203,0.186,0.169,0.117,0.0761,1.14,1.26,1.09,1.48,0.912,0.524,0.391,0.357,0.288,0.363
A549,0.763,0.67,0.696,0.656,0.458,,,,,,,,,,,,,,,
IA-LM,0.645,0.935,0.599,0.979,0.556,,,,,,0.78,0.94,0.708,0.817,0.729,,,,,
EKVX,0.844,0.9,0.799,0.794,0.674,0.365,0.305,0.311,0.16,0.204,1.03,1.07,0.985,0.854,0.861,0.53,0.55,0.573,0.47,0.493
ChaGo-K-1,,,,,,0.915,0.957,0.755,0.875,0.805,0.914,0.517,0.947,0.83,0.454,0.588,0.637,0.661,0.478,0.495
SK-MES-1,0.811,0.85,0.846,0.873,0.948,0.329,0.336,0.314,0.259,0.277,,,,,,0.395,0.504,0.386,0.231,0.344

Cell Line,relative viability (Seliciclib + Alpelisib; first compound 0.08 µM),relative viability (Seliciclib + Alpelisib; first compound 0.253 µM),relative viability (Seliciclib + Alpelisib; first compound 0.8 µM),relative viability (Seliciclib + Alpelisib; first compound 2.53 µM),relative viability (Seliciclib + Alpelisib; first compound 8 µM),relative viability (Seliciclib + Palbociclib; first compound 0.08 µM),relative viability (Seliciclib + Palbociclib; first compound 0.253 µM),relative viability (Seliciclib + Palbociclib; first compound 0.8 µM),relative viability (Seliciclib + Palbociclib; first compound 2.53 µM),relative viability (Seliciclib + Palbociclib; first compound 8 µM),relative viability (Seliciclib + Bortezomib; first compound 0.08 µM),relative viability (Seliciclib + Bortezomib; first compound 0.253 µM),relative viability (Seliciclib + Bortezomib; first compound 0.8 µM),relative viability (Seliciclib + Bortezomib; first compound 2.53 µM),relative viability (Seliciclib + Bortezomib; first compound 8 µM),relative viability (Seliciclib + Dasatinib; first compound 0.08 µM),relative viability (Seliciclib + Dasatinib; first compound 0.253 µM),relative viability (Seliciclib + Dasatinib; first compound 0.8 µM),relative viability (Seliciclib + Dasatinib; first compound 2.53 µM),relative viability (Seliciclib + Dasatinib; first compound 8 µM)
NCI-H1755,0.924,0.946,0.908,0.991,0.892,0.417,0.477,0.342,0.433,0.412,0.928,0.961,0.896,0.973,0.913,0.423,0.404,0.429,0.26,0.404
NCI-H2228,0.639,0.69,0.936,0.658,0.63,0.851,0.617,0.714,0.86,0.507,1.05,0.943,0.954,0.978,0.713,0.581,0.488,0.481,0.514,0.368
NCI-H2087,1.08,1.21,1.06,1.09,0.815,0.28,0.288,0.241,0.16,0.151,0.73,0.792,0.719,0.752,0.661,0.874,1.07,0.898,0.704,0.754
LU99A,0.491,0.518,0.452,0.359,0.416,0.378,0.332,0.357,0.318,0.275,1.16,1.05,1.01,0.94,0.803,0.611,0.521,0.588,0.262,0.507
NCI-H1355,0.784,0.754,0.822,0.919,0.831,0.374,0.331,0.364,0.371,0.341,1.16,1.1,1.23,1.03,1.11,0.755,0.585,0.683,0.544,0.686
LK-2,1.05,0.968,0.955,1.17,0.822,0.466,0.423,0.509,0.447,0.285,,,,,,0.305,0.414,0.436,0.226,0.217
NCI-H1648,,,,,,0.259,0.332,0.308,0.231,0.169,,,,,,,,,,
NCI-H1650,,,,,,0.369,0.317,0.332,0.353,0.216,0.214,0.217,0.2,0.21,0.178,0.3,0.344,0.304,0.247,0.285
NCI-H596,0.522,0.428,0.498,0.506,0.468,,,,,,1.1,0.892,0.96,1.19,0.914,0.658,,0.594,0.606,0.515
NCI-H2342,,,,,,0.63,0.477,0.539,0.524,0.492,,,,,,0.328,0.336,0.313,0.301,0.319
NCI-H2170,0.801,0.585,0.824,0.904,0.834,0.389,,0.372,0.364,0.308,,,,,,0.547,0.464,0.472,0.636,0.52
NCI-H1793,0.641,0.68,0.508,0.708,0.742,0.28,0.258,0.289,0.289,0.224,,,,,,0.33,0.323,0.414,0.37,0.482
NCI-H1944,0.813,0.859,0.77,0.904,0.666,0.354,0.312,0.28,0.261,0.268,,,,,,0.242,0.198,0.208,0.17,0.205
NCI-H1563,0.952,0.872,0.954,0.927,0.882,,,,,,0.856,0.79,0.892,0.806,0.861,0.536,0.525,0.503,0.416,0.428
EBC-1,0.901,0.88,0.895,0.828,0.616,,,,,,0.554,0.553,0.623,0.466,0.379,,,,,
Calu-6,0.942,0.993,1.04,1.01,0.809,,,,,,0.969,0.938,1.12,1.01,0.989,,,,,
HCC-44,0.845,0.834,0.798,0.74,0.707,0.969,1.02,0.994,0.883,0.889,0.841,0.885,0.82,0.758,0.881,,,,,
